Test [1] addresses T1, FGFR4/KLB (Fc-fused human FGF-R4 with beta-klotho) (Homo sapiens, UniProt P22455).
T1 sequence (P22455 22-369 limits assumed): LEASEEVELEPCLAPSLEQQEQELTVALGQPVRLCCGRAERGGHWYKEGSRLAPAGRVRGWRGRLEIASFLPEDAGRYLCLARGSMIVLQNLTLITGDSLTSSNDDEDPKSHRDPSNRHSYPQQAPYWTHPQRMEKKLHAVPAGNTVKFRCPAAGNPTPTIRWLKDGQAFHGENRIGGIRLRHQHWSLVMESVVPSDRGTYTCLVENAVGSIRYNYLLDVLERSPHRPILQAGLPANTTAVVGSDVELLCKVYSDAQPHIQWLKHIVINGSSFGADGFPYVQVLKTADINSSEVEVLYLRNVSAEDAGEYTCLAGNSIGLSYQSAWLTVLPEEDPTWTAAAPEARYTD
Description: AlphaScreen FGF21 competitive binding assay.

Test [2] addresses T2, FGFR3c/BKL (Fc-fused human FGF-R3alpha(IIIc) with beta-klotho) (Homo sapiens, UniProt P22607).
T2 sequence (P22607 23-375 limits assumed): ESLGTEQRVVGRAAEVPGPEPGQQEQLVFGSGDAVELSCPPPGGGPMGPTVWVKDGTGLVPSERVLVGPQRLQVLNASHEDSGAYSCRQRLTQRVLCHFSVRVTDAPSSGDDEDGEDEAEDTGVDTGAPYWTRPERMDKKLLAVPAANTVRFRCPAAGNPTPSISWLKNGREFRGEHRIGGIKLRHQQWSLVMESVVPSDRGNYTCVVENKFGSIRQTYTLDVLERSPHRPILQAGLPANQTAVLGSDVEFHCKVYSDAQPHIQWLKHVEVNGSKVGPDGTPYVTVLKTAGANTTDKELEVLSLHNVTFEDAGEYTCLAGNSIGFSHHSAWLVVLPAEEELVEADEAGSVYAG
Description: AlphaScreen FGF21 competitive binding assay. The settings on record: read-out: IC50 values for controls (FGF-R3C); positive controls, Alphascreen vs biotinylated FGF21. For orientation: In Alpha technology, singlet oxygen from a donor bead excites a nearby acceptor bead.
Description: Alphascreen binding assay
The competitive binding assay was carried out according to the methods detailed in Hansen. et al using
AlphaScreen.3 All reagents and samples were prepared in assay buffer: 40mM Hepes, 140mM NaCl, 1mM
CaCl2, 0,05% Tween20, pH=7.5, 0.1% BSA. In brief, recombinant human beta-klotho (R&D Systems) was
preincubated for 60 min with the ectodomain, either Fc-fused human FGF-R1alpha(IIIc), FGF-R3alpha(IIIc)
or FGF-R4 (R&D Systems), and the mixture was added to the test peptides in OptiPlate™ (PerkinElmer).
Biotinylated FGF21 and heparin were further added to each well. AlphaScreen bead mix (1:1 mix of Protein
A acceptor beads/ streptavidin-coated donor beads, PerkinElmer) were added to each well incubated
overnight at RT in the dark, and measured on a plate reader (Envision). Assays were carried out in triplicates
with concentrations ranging from 3, 10, 30, 100, 300 ,1000 and 3000 nM of peptide. No peptide control
(media only) was used as a negative control, and unlabeled FGF21 and FGF1 as positive control.
competing with biotinylated natural FGF21 ligand.

The target in test [3] is T3, FGFR1c/KLB (Fc-fused human FGF-R1alpha(IIIc) with beta-klotho) (Homo sapiens, UniProt P11362).
T3 sequence (P11362 22-376 limits assumed): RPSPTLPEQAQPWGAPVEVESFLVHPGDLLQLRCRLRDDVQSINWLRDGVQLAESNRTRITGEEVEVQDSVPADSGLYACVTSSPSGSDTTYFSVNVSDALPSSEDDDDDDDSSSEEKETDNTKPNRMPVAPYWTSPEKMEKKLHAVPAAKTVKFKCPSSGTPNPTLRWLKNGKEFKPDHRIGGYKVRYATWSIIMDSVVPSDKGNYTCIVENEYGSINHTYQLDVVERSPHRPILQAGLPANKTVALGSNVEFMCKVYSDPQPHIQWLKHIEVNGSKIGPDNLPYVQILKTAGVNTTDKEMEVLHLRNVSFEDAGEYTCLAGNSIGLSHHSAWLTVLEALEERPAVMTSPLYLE
Nature of the test: AlphaScreen FGF21 competitive binding assay. The settings on record: read-out: IC50 values for controls (FGF-R1C); positive controls, Alphascreen vs biotinylated FGF21.

For test [4], the target named is T4, FGF-R4 ECD (Homo sapiens, UniProt P22455).
T4 construct: DNA constructs for the extracellular domain (ECD) of human FGF-; HPC4 (C); made in house; host or cells: HEK 293-6E
T4 sequence (P22455 22-369 limits assumed): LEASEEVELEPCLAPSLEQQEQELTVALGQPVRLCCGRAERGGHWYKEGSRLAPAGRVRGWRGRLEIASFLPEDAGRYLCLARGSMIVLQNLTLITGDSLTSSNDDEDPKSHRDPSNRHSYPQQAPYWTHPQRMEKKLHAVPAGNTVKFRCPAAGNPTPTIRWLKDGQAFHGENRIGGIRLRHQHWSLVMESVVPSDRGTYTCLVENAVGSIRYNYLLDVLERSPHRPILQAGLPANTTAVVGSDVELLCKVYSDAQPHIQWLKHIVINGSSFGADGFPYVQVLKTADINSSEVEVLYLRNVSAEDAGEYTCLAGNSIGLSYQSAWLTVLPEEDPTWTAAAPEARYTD
Nature of the test: multi-concentration BLI of purified peptides. Format: binding. The essentials: (§1)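 Biolayer interferometry with biotinylated FGF-R ECD on streptavidin biosensors in PBS pH 7.4, 0.05% Tween-20, 0.01% BSA. Multi-concentration: purified peptide dilution series fitted to a multi-point KD model.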

Test [5] concerns the target T4, FGF-R4 ECD. Nature of the test: single concentration BLI of crude peptides. The conditions noted are these: read-out: KD (4). The class given is binding. The essentials:
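Streptavidin biosensors carrying biotinylated FGF receptor ECD were immersed in peptide (~1 μM for crude single-point runs, a concentration series for purified peptides) and then in peptide-free buffer. KD was obtained by fitting the BLI association and dissociation curves.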

In test [6] the target is T5, FGF-R3C ECD (Homo sapiens, UniProt P22607).
T5 sequence (P22607 23-375 limits assumed): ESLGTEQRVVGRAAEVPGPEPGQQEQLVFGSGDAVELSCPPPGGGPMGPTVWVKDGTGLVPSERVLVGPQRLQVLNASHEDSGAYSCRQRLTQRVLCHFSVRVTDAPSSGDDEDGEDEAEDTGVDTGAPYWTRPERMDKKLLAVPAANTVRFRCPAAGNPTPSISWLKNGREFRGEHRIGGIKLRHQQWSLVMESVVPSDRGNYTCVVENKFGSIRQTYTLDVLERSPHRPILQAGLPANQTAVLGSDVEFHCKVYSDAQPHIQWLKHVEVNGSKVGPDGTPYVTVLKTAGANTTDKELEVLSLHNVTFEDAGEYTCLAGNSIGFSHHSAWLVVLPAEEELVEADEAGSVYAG
Nature of the test: biochemical. The class given is binding. Further details: DNA constructs for the extracellular domain (ECD) of human FGF-; HPC4 (C); made in house; host or cells: HEK 293-6E. The essentials: as §1

The target in test [7] is T6, FGF-R1C ECD (Homo sapiens, UniProt P11362).
T6 sequence (P11362 22-376 limits assumed): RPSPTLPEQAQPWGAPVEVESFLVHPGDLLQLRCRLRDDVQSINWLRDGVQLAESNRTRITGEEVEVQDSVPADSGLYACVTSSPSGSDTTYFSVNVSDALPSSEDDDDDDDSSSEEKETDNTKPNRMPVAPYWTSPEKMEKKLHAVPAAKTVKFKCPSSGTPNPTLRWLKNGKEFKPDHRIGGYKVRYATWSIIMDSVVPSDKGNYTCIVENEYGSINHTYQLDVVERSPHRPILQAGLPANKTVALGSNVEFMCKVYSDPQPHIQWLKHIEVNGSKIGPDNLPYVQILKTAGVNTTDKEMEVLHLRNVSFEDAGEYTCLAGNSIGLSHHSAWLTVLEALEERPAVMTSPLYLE
Nature of the test: biochemical. The class given is binding. Further details: DNA constructs for the extracellular domain (ECD) of human FGF-; HPC4 (C); made in house; host or cells: HEK 293-6E. The essentials: as §1

Test [8] addresses T5, FGF-R3C ECD. Nature of the test: biochemical. The method, boiled down:
as §1

The target in test [9] is T6, FGF-R1C ECD. Description: biochemical. The essentials: as §1
Setting [10] is: read-out: IC50 values for controls (FGF-R4), positive controls, Alphascreen vs biotinylated FGF21.

Like-named read-outs stand apart in the source and are kept apart here.

For orientation: IC50 means the concentration that gives 50% inhibition. In general, Kd refers to a measure of binding affinity in units of concentration.

Take “FGF1: FGF1 used as positive control [reference compound]”: the IC50 in test [1] (setting [10]) stood at 7 nM; in [2], 3 nM; in [3] it was 4 nM.

Turning to `CSCC[C@@H]1NC(=O)[C@H](CC(N)=O)NC(=O)[C@H](CO)NC(=O)[C@@H](NC(=O)[C@@H](N)CCSC)CSSC[C@@H](C(=O)NCC(=O)N[C@@H](CO)C(=O)NCC(=O)N[C@@H](CO)C(=O)N[C@@H](CC(=O)O)C(=O)N[C@@H](Cc2ccc(O)cc2)C(=O)N[C@@H](CCCCN)C(=O)N[C@@H](CC(=O)O)C(=O)N[C@@H](CC(=O)O)C(=O)N[C@@H](CC(=O)O)C(=O)N[C@@H](CC(=O)O)C(=O)N[C@@H](CCCCN)C(N)=O)NC(=O)[C@H](C)NC(=O)[C@H](Cc2c[nH]c3ccccc23)NC(=O)[C@H](Cc2c[nH]c3ccccc23)NC(=O)[C@H](CCCNC(=N)N)NC(=O)[C@H](CC(N)=O)NC(=O)[C@H](C)NC(=O)[C@H](CC(C)C)NC(=O)[C@H](CCCCN)NC(=O)[C@H](Cc2c[nH]c3ccccc23)NC1=O` [1C.3], the Kd is greater than 1000 nM on FGF-R4 ECD [4] (purified NNK library peptides) and greater than 10000 nM on FGF-R4 ECD [5] (crude NNK peptides, single concentration BLI (Table S3)). In addition, the IC50 in test [1] is greater than 1000 nM.

In the case of `CSCC[C@H](NC(C)=O)C(=O)N[C@H]1CSSC[C@@H](C(=O)NCC(=O)N[C@@H](CO)C(=O)NCC(=O)N[C@@H](CO)C(=O)N[C@@H](CC(=O)O)C(=O)N[C@@H](Cc2ccc(O)cc2)C(=O)N[C@@H](CCCCN)C(=O)N[C@@H](CC(=O)O)C(=O)N[C@@H](CC(=O)O)C(=O)N[C@@H](CC(=O)O)C(=O)N[C@@H](CC(=O)O)C(=O)N[C@@H](CCCCN)C(N)=O)NC(=O)[C@H](CC(C)C)NC(=O)[C@H](CCC(N)=O)NC(=O)[C@H](Cc2c[nH]c3ccccc23)NC(=O)[C@H](CCCCN)NC(=O)[C@H](CCC(=O)O)NC(=O)[C@H](Cc2c[nH]c3ccccc23)NC(=O)[C@H](CC(N)=O)NC(=O)[C@H](Cc2ccc(O)cc2)NC(=O)[C@H](Cc2ccccc2)NC(=O)[C@H](CCCNC(=N)N)NC(=O)[C@H]([C@@H](C)O)NC(=O)[C@H](Cc2ccc(O)cc2)NC1=O` [4.13], the Kd was greater than 1000 nM on FGF-R4 ECD [4] (purified trimer-18 library peptides); greater than 10000 nM at FGF-R4 ECD [5] (crude T18 selection 1 (1:1:1) peptides, single concentration BLI (Table S4)); greater than 10000 nM on FGF-R3C ECD [6]; 17 nM at FGF-R1C ECD [7]; greater than 1000 nM on FGF-R3C ECD [8]; greater than 1000 nM at FGF-R1C ECD [9].

B1: FGF21: unlabelled FGF21, natural ligand used as positive control (protein, UniProt Q9NSA1 29-209, looked up)
Fibroblast growth factor 21: HPIPDSSPLLQFGGQVRQRYLYTDDAQQTEAHLEIREDGTVGGAADQSPESLLQLKALKPGVIQILGVKTSRFLCQRPDGALYGSLHFDPEACSFRELLLEDGYNVYQSEAHGLPLHLPGNKSPHRDPAPRGPARFLPLPGLPPALPEPPGILAPQPPDVGSSDPLSMVGPSQGRSPSYAS
As to B1, the IC50 turned out to be 674 nM in test [1] (setting [10]), 20 nM in test [2] and 23 nM in test [3].
